Patent US7879911B2 (priority 2007, dated 2011)

Biological target: Lethal factor protease (Bacillus anthracis, UniProt P15917)
Experiment: biochemical
Details: LF (FRET) Ki^app

Lethal factor protease, sequence (P15917 34-809 limits assumed): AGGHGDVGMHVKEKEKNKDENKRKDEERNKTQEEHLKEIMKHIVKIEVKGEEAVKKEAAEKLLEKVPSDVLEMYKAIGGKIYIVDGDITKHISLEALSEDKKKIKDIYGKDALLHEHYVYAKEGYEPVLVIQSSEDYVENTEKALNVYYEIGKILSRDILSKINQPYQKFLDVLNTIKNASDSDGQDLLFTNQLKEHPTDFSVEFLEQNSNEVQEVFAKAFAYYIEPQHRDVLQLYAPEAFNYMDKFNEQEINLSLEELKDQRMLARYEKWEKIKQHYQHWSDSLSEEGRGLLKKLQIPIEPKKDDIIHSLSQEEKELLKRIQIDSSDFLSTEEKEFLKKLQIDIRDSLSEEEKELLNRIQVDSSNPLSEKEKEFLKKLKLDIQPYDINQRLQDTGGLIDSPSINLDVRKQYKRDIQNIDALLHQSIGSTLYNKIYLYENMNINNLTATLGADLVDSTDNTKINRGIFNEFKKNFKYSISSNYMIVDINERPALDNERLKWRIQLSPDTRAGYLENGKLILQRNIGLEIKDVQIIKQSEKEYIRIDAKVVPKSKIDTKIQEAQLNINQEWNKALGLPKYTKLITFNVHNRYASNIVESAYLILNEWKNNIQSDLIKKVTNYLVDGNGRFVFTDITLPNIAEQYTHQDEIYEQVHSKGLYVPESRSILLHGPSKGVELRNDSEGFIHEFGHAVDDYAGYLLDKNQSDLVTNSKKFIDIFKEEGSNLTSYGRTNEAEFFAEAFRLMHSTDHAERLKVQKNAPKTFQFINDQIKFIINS

Row | Compound | Ki [nM]
1 | CCCCC(C(=O)NO)[S+]([O-])c1ccc(F)c(C)c1 (single isomer, unassigned) [Compound 167351, syn-2-(4-Fluoro-3-methyl-benzenesulfinyl)-hexanoic acid hydroxyamide] | 10300
2 | CCCCC(C(=O)NO)[S+]([O-])c1ccc(F)c(C)c1 (single isomer, unassigned) [Compound 167352, anti-2-(4-Fluoro-3-methyl-benzenesulfinyl)-hexanoic acid hydroxyamide] | 67000
3 | CCCCC(Oc1ccc(F)c(C)c1)C(=O)NO (stereo not shown) [Compound 167163, 2-(4-Fluoro-3-methyl-phenoxy)-hexanoic acid hydroxyamide] | 5500
4 | Cc1cc(OCC(=O)NO)ccc1F [Compound 167182, 2-(4-Fluoro-3-methyl-phenoxy)-N-hydroxy-acetamide] | 29200
5 | CCCCC(Sc1ccc(F)c(C)c1)C(=O)NO (stereo not shown) [Compound 167303, 2-(4-Fluoro-3-methyl-phenylsulfanyl)-hexanoic acid hydroxyamide] | 2500
6 | CCCCC(C(=O)NO)S(=O)(=O)c1ccc(F)c(C)c1 (stereo not shown) [Compound 167304, 2-(4-Fluoro-3-methyl-benzenesulfonyl)-hexanoic acid hydroxyamide] | 30000
7 | CCCCC(C(=O)NO)[S+]([O-])c1ccc(F)c(C)c1 (stereo not shown) [Compound 167316, 2-(4-Fluoro-3-methyl-benzenesulfinyl)-hexanoic acid hydroxyamide] | 18000
8 | CCC[C@@H](Oc1ccc(F)c(C)c1)C(=O)NO [Compound 168090, (R)-2-(4-Fluoro-3-methyl-phenoxy)-pentanoic acid hydroxyamide] | 3700
9 | Cc1cc(O[C@H](CCO)C(=O)NO)ccc1F [Compound 168093, (R)-2-(4-fluoro-3-methylphenoxy)-N,4-dihydroxybutanamide] | 23100
10 | Cc1cc(CNCCCC[C@@H](Oc2ccc(F)c(C)c2)C(=O)NO)ccc1F [Compound 168097, (R)-6-(4-Fluoro-3-methylbenzylamino)-2-(4-fluoro-3-methylphenoxy)-N-hydroxyhexanamide] | 210
11 | Cc1cc(CNCCCC[C@@H](Oc2cc(C)c(F)c(C)c2)C(=O)NO)ccc1F [Compound 168100, (R)-2-(4-fluoro-3,5-dimethylphenoxy)-6-(4-fluoro-3-methylbenzylamino)-N-hydroxyhexanamide] | 580
12 | Cc1cc(COCCCC[C@@H](Oc2ccc(F)c(C)c2)C(=O)NO)ccc1F [Compound 168113, (R)-6-(4-Fluoro-3-methylbenzyloxy)-2-(4-fluoro-3-methylphenoxy)-N-hydroxyhexanamide] | 540
13 | Cc1cc(OCC(=O)NO)cc(C)c1F [Compound 168115, 2-(4-Fluoro-3,5-dimethyl-phenoxy)-N-hydroxy-acetamide] | 2520
14 | O=C(COc1ccc(F)c(Cl)c1)NO [Compound 168127, 2-(3-chloro-4-fluorophenoxy)-N-hydroxyacetamide] | 31200
15 | O=C(COc1ccc(F)cc1)NO [Compound 168128, 2-(4-fluorophenoxy)-N-hydroxyacetamide] | 61100
16 | O=C(COc1ccc(Cl)cc1)NO [Compound 168129, 2-(4-chlorophenoxy)-N-hydroxyacetamide] | 83900
17 | O=C(COc1ccc(F)c(F)c1)NO [Compound 168130, 2-(3,4-difluorophenoxy)-N-hydroxyacetamide] | 26200
18 | Cc1cc(COCCCC[C@@H](Oc2cc(C)c(F)c(C)c2)C(=O)NO)ccc1F [Compound 168135, (R)-2-(4-fluoro-3,5-dimethylphenoxy)-6-(4-fluoro-3-methylbenzyloxy)-N-hydroxyhexanamide] | 3030
19 | Cc1cc(CCCN(C)CC[C@@H](Oc2ccc(F)c(C)c2)C(=O)NO)ccc1F [Compound 168142, (R)-2-(4-fluoro-3-methylphenoxy)-4-((3-(4-fluoro-3-methylphenyl)propyl)(methyl)amino)-N-hydroxybutanamide] | 1120
20 | Cc1cc(O[C@H](CCN2CCC[C@@H](CN3CCCCC3)C2)C(=O)NO)ccc1F [Compound 168143, (R)-2-(4-fluoro-3-methylphenoxy)-N-hydroxy-4-((S)-3-(piperidin-1-ylmethyl)piperidin-1-yl)butanamide] | 1670
21 | O=C(NO)[C@@H](C/C=C\COCc1ccccc1)Oc1ccc(F)c(Cl)c1 [Compound 168160, (R,Z)-6-(benzyloxy)-2-(3-chloro-4-fluorophenoxy)-N-hydroxyhex-4-enamide] | 1250
22 | Cc1cc(O[C@H](CCCCO)C(=O)NO)ccc1F [Compound 168176, (R)-2-(4-fluoro-3-methylphenoxy)-N,6-dihydroxyhexanamide] | 1780
23 | Cc1cc(O[C@H](CCCCNCc2cccs2)C(=O)NO)ccc1F [Compound 168177, (R)-2-(4-fluoro-3-methylphenoxy)-N-hydroxy-6-(thiophen-2-ylmethylamino)hexanamide] | 210
24 | Cc1cc(O[C@H](CCCCNCc2cccc(-c3ccc(F)cc3)c2)C(=O)NO)ccc1F [Compound 168178, (R)-2-(4-fluoro-3-methylphenoxy)-6-((4′-fluorobiphenyl-3-yl)methylamino)-N-hydroxyhexanamide] | 130
25 | Cc1cc(O[C@H](CCCCNCC2CC3CCC2C3)C(=O)NO)ccc1F (stereo partly shown) [Compound 168183] | 170
26 | Cc1cc(O[C@H](CCCCNCc2ccco2)C(=O)NO)ccc1F [Compound 168184] | 750
27 | Cc1cc(O[C@H](C/C=C/COCc2ccccc2)C(=O)NO)ccc1F [Compound 168185] | 770
28 | O=C(NO)[C@@H](CCCCOCc1ccccc1)Oc1ccc(F)c(Cl)c1 [Compound 168187] | 1070
